Results from ChEMBL document CHEMBL1201862, “PubChem BioAssay data set” (2004).
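How tested: cells in 96-well plates exposed to compound for 48 hours at five concentrations. GI50 marks 50% less growth.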 Active and inactive are the calls of the source. Cut-off read from the data, not from the text of the source: active = GI50 up to about 1.1 µM and inactive = higher.

Columns and labels:
Experiment in all cases: DTP human tumour cell line panel, 48 h
[1] = tested on: SNB-19
[2] = tested on: CCRF-CEM
[3] = tested on: OVCAR-4
[4] = tested on: K562
[5] = tested on: SR
[6] = tested on: HOP-62
[7] = tested on: HL-60
[8] = tested on: SK-MEL-28
[9] = tested on: NCI-H226
[10] = tested on: CAKI-1
[11] = tested on: KM12
[12] = tested on: OVCAR-5
[13] = tested on: SNB-78
[14] = tested on: LOX IMVI
[15] = tested on: NCI-H23
[16] = tested on: SF-539
[17] = tested on: MCF7
[18] = tested on: DU-145
[19] = tested on: PC-3
[20] = tested on: NCI/ADR-RES

Measured: GI50

CCCCCCCCCCCC(=O)OCCOCCOCCOCCOCCOCc1ccc(OC)cc1
inactive: [1] > 100 µM | [2] > 100 µM | [3] > 100 µM | [4] > 100 µM | [5] > 100 µM | [6] > 100 µM | [7] 14.8 µM | [8] > 100 µM | [9] > 100 µM | [10] > 100 µM | [11] > 100 µM | [12] > 100 µM | [13] > 100 µM | [14] > 100 µM | [15] > 100 µM

c1ccc(C2(c3ccccc3)SSC3(S2)C2CC4CC(C2)CC3C4)cc1 (stereo not given)
inactive: [1] > 100 µM | [2] 39.7 µM | [3] > 100 µM | [4] > 100 µM | [5] > 59.2 µM | [7] 35.9 µM | [8] > 100 µM | [10] > 100 µM | [16] > 100 µM | [11] > 100 µM | [12] > 100 µM | [13] > 100 µM | [14] > 100 µM | [15] > 100 µM

COC1(OC)CC2C(=O)N(Cc3ccccc3)C1C=C2S(=O)(=O)c1ccccc1 (stereo not given)
inactive: [1] 24 µM | [2] 14.9 µM | [3] 20.5 µM | [4] 22.5 µM | [5] 15 µM | [6] 38.8 µM | [7] 11.7 µM | [8] 17.5 µM | [9] 27.9 µM | [16] 17 µM | [11] 17.4 µM | [13] 21.8 µM | [14] 13.4 µM | [15] 18 µM

CC(=O)Nc1ccc(-c2nnc(SCC(=O)Nc3ccc([N+](=O)[O-])cc3)o2)cc1
inactive: [2] 12.6 µM | [3] 13.4 µM | [4] 36.4 µM | [5] 3.18 µM | [6] 26.3 µM | [7] > 100 µM | [8] 14.3 µM | [9] 15.7 µM | [10] 14.3 µM | [16] 24.3 µM | [11] 14.5 µM | [12] 19.8 µM | [13] 16.1 µM | [14] 5.15 µM | [15] 12.2 µM

N#C/C(=C\c1ccccc1F)C(=O)c1ccccc1
inactive: [1] > 100 µM | [2] > 100 µM | [3] > 100 µM | [4] > 100 µM | [5] > 100 µM | [6] > 100 µM | [7] 66.7 µM | [8] > 100 µM | [10] > 100 µM | [16] > 100 µM | [11] > 100 µM | [12] > 100 µM | [13] > 100 µM | [14] > 100 µM | [15] > 100 µM

COc1ccc(OC)c(NC(=O)C(=O)CC(=O)c2sc(-n3nc(-c4ccccc4)cc3-c3ccccc3)nc2C)c1
inactive: [1] > 100 µM | [2] > 100 µM | [3] > 100 µM | [4] > 100 µM | [5] 27.7 µM | [6] > 100 µM | [7] > 100 µM | [9] > 100 µM | [10] > 100 µM | [16] > 100 µM | [11] > 100 µM | [12] > 100 µM | [13] > 100 µM | [14] > 100 µM | [15] > 100 µM

CC(O)c1ccc(C(O)/C(=N\NC(=O)c2ccncc2)c2nc3ccc([N+](=O)[O-])cc3nc2O)cc1 (stereo not given)
inactive: [1] > 100 µM | [2] > 100 µM | [3] > 100 µM | [4] 40.8 µM | [5] 75 µM | [6] > 100 µM | [7] 50.5 µM | [8] > 100 µM | [9] > 100 µM | [10] 52.8 µM | [16] 37 µM | [11] 49 µM | [12] > 100 µM | [13] > 100 µM | [14] 30 µM | [15] > 100 µM

CCOC(=O)C1CCCCN1C(=O)OCc1ccccc1 (stereo not given)
inactive: [1] > 100 µM | [2] > 100 µM | [3] > 100 µM | [4] > 100 µM | [5] > 100 µM | [6] > 100 µM | [7] 41 µM | [8] > 100 µM | [9] 27.3 µM | [10] > 100 µM | [16] > 100 µM | [11] > 100 µM | [12] > 100 µM | [13] > 100 µM | [15] 78.3 µM

CCCCCCC(=O)C/C(CCC(=O)N(Cc1ccccc1)Cc1ccccc1)=N\NC(N)=O
inactive: [1] > 100 µM | [2] > 100 µM | [3] > 100 µM | [4] > 100 µM | [5] > 100 µM | [6] > 100 µM | [7] > 100 µM | [8] > 100 µM | [9] > 100 µM | [10] > 100 µM | [16] > 100 µM | [11] > 100 µM | [12] > 100 µM | [13] > 100 µM | [14] > 100 µM | [15] > 100 µM

N#C/C(=C\c1ccc2[nH]ccc2c1)C(=O)NCCCCNC(=O)/C(C#N)=C/c1ccc2[nH]ccc2c1
inactive: [1] > 31.6 µM | [2] > 31.6 µM | [3] > 31.6 µM | [4] > 31.6 µM | [5] > 31.6 µM | [6] > 31.6 µM | [17] > 10 µM | [18] > 10 µM | [7] > 31.6 µM | [19] > 10 µM | [8] > 31.6 µM | [9] > 31.6 µM | [20] > 10 µM | [10] > 31.6 µM | [16] > 31.6 µM | [11] > 31.6 µM | [12] > 31.6 µM | [13] > 100 µM | [14] > 31.6 µM | [15] > 31.6 µM
